Measurements published in ChEMBL document CHEMBL1201862, “PubChem BioAssay data set” (2004).
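Grown in 96-well plates, cells were treated for 48 hours with each compound at five concentrations. Insufficient inhibition: endpoint recorded as highest concentration tested. GI50 is the concentration that inhibits growth by half.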 Active and inactive are the calls of the source. Rule as the data show it: active = GI50 up to about 1.1 µM and inactive = higher.

How the values were obtained:
Assay in all cases: inhibition of tumour cell growth, NCI panel, 48 h
786-0 = test system: 786-0
A498 = test system: A498
A549 = test system: A549
ACHN = test system: ACHN
BT-549 = test system: BT-549
CAKI-1 = test system: CAKI-1
CCRF-CEM = test system: CCRF-CEM
COLO 205 = test system: COLO 205
DU-145 = test system: DU-145
EKVX = test system: EKVX
HCT-116 = test system: HCT-116
HCT-15 = test system: HCT-15
HOP-62 = test system: HOP-62
HOP-92 = test system: HOP-92
HT-29 = test system: HT-29
Hs-578T = test system: Hs-578T
IGROV-1 = test system: IGROV-1
K562 = test system: K562
KM12 = test system: KM12
LOX IMVI = test system: LOX IMVI
M14 = test system: M14
MCF7 = test system: MCF7
MDA-MB-231 = test system: MDA-MB-231
MDA-MB-435 = test system: MDA-MB-435
MOLT-4 = test system: MOLT-4
Malme-3M = test system: Malme-3M
NCI-H226 = test system: NCI-H226
NCI-H23 = test system: NCI-H23
NCI-H460 = test system: NCI-H460
NCI-H522 = test system: NCI-H522
NCI/ADR-RES = test system: NCI/ADR-RES
OVCAR-3 = test system: OVCAR-3
OVCAR-4 = test system: OVCAR-4
OVCAR-5 = test system: OVCAR-5
OVCAR-8 = test system: OVCAR-8
PC-3 = test system: PC-3
RPMI-8226 = test system: RPMI-8226
RXF 393 = test system: RXF 393
SF-268 = test system: SF-268
SF-295 = test system: SF-295
SF-539 = test system: SF-539
SK-MEL-28 = test system: SK-MEL-28
SK-MEL-2 = test system: SK-MEL-2
SK-MEL-5 = test system: SK-MEL-5
SK-OV-3 = test system: SK-OV-3
SN12C = test system: SN12C
SNB-19 = test system: SNB-19
SNB-75 = test system: SNB-75
SR = test system: SR
SW-620 = test system: SW-620
T47D = test system: T47D
TK-10 = test system: TK-10
U-251 = test system: U-251
UACC-257 = test system: UACC-257
UACC-62 = test system: UACC-62
UO-31 = test system: UO-31
HCC 2998 = test system: HCC 2998
HL-60 = test system: HL-60
MDA-N = test system: MDA-N

Measured: GI50

Cn1c(=O)c2c(nc(N3CCOCC3)n2CCCNCC(O)c2ccc(O)c(O)c2)n(C)c1=O (stereo not drawn)
inactive: 786-0 > 100 µM | A498 > 100 µM | A549 > 100 µM | ACHN > 100 µM | BT-549 > 100 µM | CAKI-1 > 100 µM | CCRF-CEM > 100 µM | COLO 205 > 100 µM | DU-145 > 100 µM | EKVX > 100 µM | HCT-116 > 100 µM | HOP-62 > 100 µM | HOP-92 > 100 µM | HT-29 > 100 µM | Hs-578T > 100 µM | IGROV-1 > 100 µM | K562 > 100 µM | KM12 > 100 µM | LOX IMVI > 100 µM | M14 > 100 µM | MCF7 > 100 µM | MDA-MB-435 38.9 µM | MOLT-4 20.8 µM | Malme-3M > 100 µM | NCI-H226 > 100 µM | NCI-H23 > 100 µM | NCI-H460 > 100 µM | NCI-H522 > 100 µM | NCI/ADR-RES > 100 µM | OVCAR-3 > 100 µM | OVCAR-4 > 100 µM | OVCAR-5 23.9 µM | OVCAR-8 25.4 µM | PC-3 > 100 µM | RPMI-8226 > 100 µM | RXF 393 > 100 µM | SF-268 > 100 µM | SF-295 > 100 µM | SF-539 > 100 µM | SK-MEL-28 > 100 µM | SK-MEL-2 > 100 µM | SK-MEL-5 > 100 µM | SK-OV-3 > 100 µM | SN12C 81.8 µM | SNB-19 > 100 µM | SNB-75 > 100 µM | SR 10 µM | SW-620 > 100 µM | T47D > 100 µM | TK-10 > 100 µM | U-251 > 100 µM | UACC-257 > 100 µM | UACC-62 > 100 µM | UO-31 > 100 µM
> 100 µM: HCT-15
active: MDA-MB-231 0.0262 µM

COc1cccc(C2c3cc4c(cc3OC3COC(=O)C32)OCO4)c1OC (stereo not drawn)
inactive: 786-0 > 100 µM | A498 > 100 µM | A549 > 100 µM | ACHN > 100 µM | BT-549 > 100 µM | CAKI-1 37.6 µM | CCRF-CEM > 100 µM | COLO 205 > 100 µM | DU-145 > 100 µM | EKVX > 100 µM | HCC 2998 > 100 µM | HCT-116 20.2 µM | HL-60 9.12 µM | HOP-62 61.1 µM | HOP-92 99.8 µM | HT-29 > 100 µM | Hs-578T 32.7 µM | IGROV-1 > 100 µM | KM12 > 100 µM | LOX IMVI > 100 µM | M14 > 100 µM | MCF7 83 µM | MDA-MB-231 > 100 µM | MDA-N 3.93 µM | MOLT-4 > 100 µM | Malme-3M > 100 µM | NCI-H226 > 100 µM | NCI-H460 > 100 µM | NCI/ADR-RES > 100 µM | OVCAR-3 > 100 µM | OVCAR-4 64.6 µM | OVCAR-5 > 100 µM | OVCAR-8 > 100 µM | PC-3 > 100 µM | RXF 393 83.4 µM | SF-268 > 100 µM | SF-295 > 100 µM | SF-539 > 100 µM | SK-MEL-28 > 100 µM | SK-MEL-2 49.4 µM | SK-MEL-5 > 100 µM | SK-OV-3 57.8 µM | SN12C > 100 µM | SNB-19 > 100 µM | SNB-75 83.9 µM | SW-620 > 100 µM | TK-10 > 100 µM | UACC-257 > 100 µM | UACC-62 68.2 µM | UO-31 > 100 µM
34.8 µM: HCT-15

Cc1cn(S(=O)(=O)c2ccccc2)c2c(OCc3ccccc3)cc([N+](=O)[O-])cc12
active: SR < 0.01 µM
inactive: 786-0 27.1 µM | A498 30.6 µM | A549 41.5 µM | ACHN 61.7 µM | BT-549 > 100 µM | CAKI-1 > 100 µM | CCRF-CEM > 100 µM | COLO 205 > 100 µM | DU-145 > 100 µM | EKVX 35.7 µM | HCC 2998 > 100 µM | HCT-116 > 100 µM | HL-60 > 100 µM | HOP-62 > 10 µM | HOP-92 74 µM | HT-29 > 100 µM | Hs-578T 26 µM | IGROV-1 71 µM | K562 > 100 µM | KM12 > 100 µM | LOX IMVI > 100 µM | M14 > 100 µM | MCF7 32.4 µM | MDA-MB-231 80.9 µM | MDA-MB-435 3.92 µM | MOLT-4 > 100 µM | Malme-3M 17.5 µM | NCI-H226 58.7 µM | NCI-H23 96.8 µM | NCI-H460 > 100 µM | NCI-H522 70.5 µM | NCI/ADR-RES > 100 µM | OVCAR-3 > 100 µM | OVCAR-4 86.3 µM | OVCAR-5 > 100 µM | OVCAR-8 > 100 µM | PC-3 32.9 µM | RPMI-8226 > 100 µM | RXF 393 25.1 µM | SF-268 > 100 µM | SF-295 27.9 µM | SF-539 > 100 µM | SK-MEL-28 79.8 µM | SK-MEL-2 62.4 µM | SK-MEL-5 6.17 µM | SK-OV-3 50.8 µM | SN12C 57.7 µM | SNB-19 56.4 µM | SNB-75 25.3 µM | SW-620 63 µM | T47D 29.2 µM | TK-10 > 100 µM | U-251 31 µM | UACC-257 > 100 µM | UACC-62 21.3 µM | UO-31 69.3 µM
> 100 µM: HCT-15

C=C(Cl)/C(=C\Cl)CCC(Cl)C(C)C (stereo not drawn)
inactive: 786-0 > 100 µM | A498 > 100 µM | A549 > 100 µM | ACHN > 100 µM | BT-549 > 100 µM | CAKI-1 > 100 µM | CCRF-CEM 41.2 µM | COLO 205 > 100 µM | DU-145 > 100 µM | EKVX > 100 µM | HCC 2998 > 100 µM | HCT-116 > 100 µM | HL-60 56.2 µM | HOP-62 > 100 µM | HOP-92 > 100 µM | HT-29 > 100 µM | Hs-578T > 100 µM | IGROV-1 > 100 µM | K562 54.3 µM | KM12 > 100 µM | LOX IMVI 35.1 µM | M14 84.9 µM | MCF7 > 100 µM | MDA-MB-231 > 100 µM | MDA-MB-435 > 100 µM | MDA-N > 100 µM | MOLT-4 44.2 µM | Malme-3M > 100 µM | NCI-H226 > 100 µM | NCI-H23 > 100 µM | NCI-H460 > 100 µM | NCI-H522 59.4 µM | NCI/ADR-RES > 100 µM | OVCAR-3 > 100 µM | OVCAR-4 > 100 µM | OVCAR-5 > 100 µM | PC-3 > 100 µM | RPMI-8226 65.2 µM | RXF 393 > 100 µM | SF-268 > 100 µM | SF-295 > 100 µM | SF-539 > 100 µM | SK-MEL-28 > 100 µM | SK-MEL-2 > 100 µM | SK-MEL-5 > 100 µM | SK-OV-3 > 100 µM | SN12C > 100 µM | SNB-19 > 100 µM | SNB-75 > 100 µM | SR 56.5 µM | SW-620 74.3 µM | TK-10 > 100 µM | U-251 > 100 µM | UACC-257 > 100 µM | UACC-62 > 100 µM | UO-31 > 100 µM

CN1C(=O)C(O)CC1c1cccc(C(F)(F)F)c1 (stereo not drawn)
inactive: 786-0 > 100 µM | A498 > 100 µM | A549 > 100 µM | ACHN > 100 µM | BT-549 > 100 µM | CAKI-1 > 100 µM | CCRF-CEM > 100 µM | COLO 205 > 100 µM | DU-145 > 100 µM | EKVX > 100 µM | HCC 2998 > 100 µM | HCT-116 > 100 µM | HL-60 > 100 µM | HOP-62 > 100 µM | HOP-92 > 100 µM | HT-29 > 100 µM | Hs-578T > 100 µM | IGROV-1 > 100 µM | K562 > 100 µM | KM12 > 100 µM | LOX IMVI > 100 µM | M14 > 100 µM | MCF7 > 100 µM | MDA-MB-231 > 100 µM | MDA-MB-435 > 100 µM | MOLT-4 > 100 µM | Malme-3M > 100 µM | NCI-H226 > 100 µM | NCI-H23 > 100 µM | NCI-H460 > 100 µM | NCI-H522 > 100 µM | NCI/ADR-RES > 100 µM | OVCAR-3 > 100 µM | OVCAR-4 > 100 µM | OVCAR-5 > 100 µM | OVCAR-8 > 100 µM | PC-3 > 100 µM | RPMI-8226 > 100 µM | RXF 393 > 100 µM | SF-268 > 100 µM | SF-295 > 100 µM | SF-539 > 100 µM | SK-MEL-28 > 100 µM | SK-MEL-2 > 100 µM | SK-MEL-5 > 100 µM | SK-OV-3 > 100 µM | SN12C > 100 µM | SNB-19 > 100 µM | SNB-75 > 100 µM | SW-620 > 100 µM | T47D > 100 µM | TK-10 > 100 µM | U-251 > 100 µM | UACC-257 > 100 µM | UACC-62 > 100 µM | UO-31 > 100 µM
> 100 µM: HCT-15
